Measured values published in patent US20250186442A1, “Obicetrapib and Ezetimibe Combination Treatment and Fixed Dose Pharmaceutical Compositions” (NewAmsterdam Pharma B.V., priority 2022, published 2025).

How the values were obtained:
[1] = Kinetic solubility in FeSSIF (pH 5.0) at 37° C.; type: physicochemical; details: FeSSIF pH 5.0, 37° C., as obicetrapib free acid
Excerpt: (§1) The amorphous form has a higher kinetic solubility and dissolution rate than the crystalline form (and by extension obicetrapib itself). Both crystalline and amorphous obicetrapib hemicalcium kinetic solubility determinations were made in biorelevant media at different pHs, namely at about 5.0 (FeSSIF conditions) and at pH of about 6.5 (FaSSIF) conditions as set forth in Example 11.28.
The concentrations in Table W are those of obicetrapib (i.e., the free acid).
(§2) The solids were magnetically stirred at 600 RPM in a shaker bath and samples were drawn with a 1.0 ml syringe at T=15 mins, 30 mins, 60 mins, 90 mins and 120 mins. The solubility was measured using HPLC method provided by the client. The compound was added to 4.0 ml glass vials at approximately 20.0 mg/ml. Samples were agitated with a vortex mixer for about 5 minutes to ensure the presence of undissolved excess powder. The sample collected at each time point was centrifuged at 1200 RPM, filtered with 0.45 μm Polytetrafluoroethylene (PTFE) filters and diluted with methanol before HPLC analysis. In order to minimize the effect of potential analyte adsorption on the filter, the initial 0.5 mL of supernatant passing through the filter was discarded prior to collecting sample for HPLC analysis.

[2] = Kinetic solubility in FaSSIF (pH 6.5) at 37° C.; type: physicochemical; details: FaSSIF pH 6.5, 37° C., as obicetrapib free acid
Excerpt: as §1
The concentrations in Table X are those of obicetrapib (i.e., the free acid).
as §2

[3] = Stability study at 70° C./75% RH (XRPD physical stability, HPLC purity); type: physicochemical; details: 70° C. at 75% relative humidity
Excerpt: FIG. 54 is a plot of x-ray powder diffraction pattern taken of crystalline obicetrapib hemicalcium, and FIG. 55 is a plot of x-ray powder diffraction patterns taken of crystalline obicetrapib hemicalcium under stress conditions. In FIG. 55, there are four diffraction patterns shown based on stability study set forth in Example 11.27. Pattern 1 is an x-ray powder diffraction pattern of a sample of amorphous obicetrapib hemicalcium. Pattern 2 is the x-ray powder diffraction pattern of a sample of crystalline obicetrapib hemicalcium. In pattern 3, the sample of crystalline obicetrapib hemicalcium was exposed to 70° C. at 75% relative humidity for one day. […] Pattern 1 was taken before the sample was placed on stability.
Stability study was conducted on crystalline and amorphous forms of obicetrapib at 70° C./75% relative humidity (RH). The solids were placed into a 4.0 ml glass vial without caps (open condition) and stored at 70° C./75% RH. Samples were pulled out of the stability chamber at day 1 (24 hours) and at 7-day time point. The solids were analyzed by XRPD for physical stability and by HPLC for chemical purity. The sample collected at each time point was dissolved in methanol before HPLC analysis. In order to minimize the effect of potential analyte adsorption on the filter, the initial 0.5 mL of supernatant passing through the filter was discarded prior to collecting sample for HPLC analysis. Purity for each sample was determined based on peak area percent and compared to the sample at T=0.

LDL-C [4] = details: cited from earlier work
LDL-C [5] = experiment: ROSE2 phase 2b clinical trial - LDL-C; type: in vivo, human; details: ROSE2; ezetimibe added on top of obicetrapib
Procedure: The primary objective of this study is to evaluate the effect of obicetrapib 10 mg+ezetimibe 10 mg combination therapy compared with placebo, when used as an adjunct to high-intensity statin therapy, on LDL-C at Day 84.
The secondary objectives of this study include the following, in hierarchical order: • To evaluate the effect of obicetrapib 10 mg monotherapy compared with placebo, when used as an adjunct to high-intensity statin therapy, on LDL-C at Day 84; • To evaluate the effect of obicetrapib 10 mg+ezetimibe 10 mg combination therapy compared with placebo, when used as an adjunct to high-intensity statin therapy, on ApoB at Day 84; and • To evaluate the effect of obicetrapib 10 mg monotherapy compared with placebo, when used as an adjunct to high-intensity statin therapy, on ApoB at Day 84.
This study will be a placebo-controlled, double-blind, randomized, Phase 2 study to evaluate the efficacy, safety, and tolerability of obicetrapib 10 mg, both in combination with ezetimibe 10 mg and as monotherapy, as an adjunct to high-intensity statin therapy. This study will take place at approximately 20 sites in the United States.
Up to 2 weeks after the Screening Visit, participants will return to the site on Day 1 (Visit 2) and confirm study eligibility before being randomized and beginning treatment. Approximately 114 eligible participants (38 participants per treatment group) will be randomized in a 1:1:1 ratio to 1 of the following treatment groups: • Combination therapy: Obicetrapib 10 mg+ezetimibe 10 mg (administered as one 10 mg obicetrapib tablet and one 10 mg ezetimibe capsule); • Obicetrapib monotherapy: Obicetrapib 10 mg (administered as one 10 mg obicetrapib tablet and 1 placebo capsule); or • Placebo (administered as 1 placebo tablet and 1 placebo capsule).
During the 12-week Treatment Period, the assigned study drugs will be administered by the participants orally with water, once daily on Day 1 to Day 84 at approximately the same time each morning. Participants will return to the site on Day 28 (+2 days), Day 84 (+2 days), and Day 112 (+2 days) for efficacy, safety, and pharmacokinetic (PK) assessments. Participants, Investigators, the Clinical Research Organization (CRO), and the Sponsor will be blinded to all lipid results from Day 1 (Visit 2) for the first participant until all enrolled participants complete the Day 84 (End of Treatment) visit or are withdrawn from the study, in order to protect blinding to treatment assignment.
The primary efficacy endpoint is the percent change from Day 1 to Day 84 in LDL-C for the obicetrapib 10 mg+ezetimibe 10 mg combination treatment group compared with the placebo group.
The secondary efficacy endpoints include the following, in hierarchical order: • Percent change from Day 1 to Day 84 in LDL-C for the obicetrapib 10 mg monotherapy • treatment group compared with the placebo group; • Percent change from Day 1 to Day 84 in ApoB for the obicetrapib 10 mg+ezetimibe 10 mg • combination treatment group compared with the placebo group; and • Percent change from Day 1 to Day 84 in ApoB for the obicetrapib 10 mg monotherapy treatment group compared with the placebo group.
The exploratory efficacy endpoints include the following: • Percent change from Day 1 to Day 84 in non-HDL-C, VLDL-C, HDL-C, TG, ApoE, Lp(a), and HDL-ApoE for the obicetrapib 10 mg+ezetimibe 10 mg combination treatment group compared with the placebo group and for the obicetrapib 10 mg monotherapy treatment group compared with the placebo group; and • Proportion of participants at Day 84 that achieve LDL-C<2.6 mmol/L (<100 mg/dL), LDL-C<1.8 mmol/L (<70 mg/dL), and LDL-C<1.3 mmol/L (<50 mg/dL) for the obicetrapib 10 mg+ezetimibe 10 mg combination treatment group compared with the placebo group and for the obicetrapib 10 mg monotherapy treatment group compared with the placebo group. […]

[6] = in water; cited from earlier work
[7] = Moisture uptake at high relative humidity (hygroscopicity); type: physicochemical; details: relative humidities approaching 90%
Excerpt: When exposed to relative humidities approaching 90%, moisture uptake has been measured to be typically less than about 5% for example. […] Other drawbacks commonly associated with manufacturing and using amorphous materials are similarly not present. For example, amorphous materials are often challenging to make chemically pure.

Row | SMILES | Concentration in Solution ([1]; 15 mins) [µg/mL] | Concentration in Solution ([1]; 30 mins) [µg/mL] | Concentration in Solution ([1]; 60 mins) [µg/mL] | Concentration in Solution ([1]; 90 mins) [µg/mL] | Concentration in Solution ([1]; 120 mins) [µg/mL] | Concentration in Solution ([2]; 15 mins) [µg/mL] | Concentration in Solution ([2]; 30 mins) [µg/mL] | Concentration in Solution ([2]; 60 mins) [µg/mL] | Concentration in Solution ([2]; 90 mins) [µg/mL] | Concentration in Solution ([2]; 120 mins) [µg/mL] | physical stability by x-ray powder diffraction ([3]; 7 days) | physical stability by x-ray powder diffraction ([3]; one day) | incremental reduction in LDL-C levels (LDL-C [4]; ezetimibe in combination with statins (Catapano et al. 2016)) | LDL-C levels reduced (LDL-C [4]; ezetimibe mono-therapy, hyperlipidemic patients (Catapano et al. 2016)) | mean reduction in LDL-C compared with placebo (LDL-C [4]; ezetimibe monotherapy, hypercholesterolemia, meta-analysis of 8 randomized studies) [%] | greater reduction in LDL-C compared with statin alone (LDL-C [4]; statin and ezetimibe in combination, meta-analysis of 27 studies) [%] | additional/incremental (median) reduction of LDL-C (LDL-C [5]) | solubility [6] | moisture uptake [7] | physical stability by x-ray powder diffraction ([3]; 14 days)
1 | CCOC(=O)N1c2ccc(C(F)(F)F)cc2[C@@H](N(Cc2cc(C(F)(F)F)cc(C(F)(F)F)c2)c2ncc(OCCCC(=O)[O-])cn2)C[C@H]1CC.CCOC(=O)N1c2ccc(C(F)(F)F)cc2[C@@H](N(Cc2cc(C(F)(F)F)cc(C(F)(F)F)c2)c2ncc(OCCCC(=O)[O-])cn2)C[C@H]1CC.[Ca+2] [Crystalline obicetrapib hemicalcium, reference compound] | 85 | 169 | 369 | 453 | 529 | 30 | 48 | 84 | 107 | 144 | the result remains the same | near total loss of crystallinity |  |  |  |  |  |  |  | 
2 | O=C1[C@H](CC[C@H](O)c2ccc(F)cc2)[C@@H](c2ccc(O)cc2)N1c1ccc(F)cc1 [Ezetimibe, (3R,4S)-1-(4-fluorophenyl)-3-[(3S)-3-(4-fluorophenyl)-3-hydroxypropyl]-4-(4-hydroxyphenyl)azetidin-2-one] |  |  |  |  |  |  |  |  |  |  |  |  | 15-20% | 15-22% | 18.58 | 15.1 | about 32% | practically insoluble |  | 
3 | CCOC(=O)N1c2ccc(C(F)(F)F)cc2[C@@H](N(Cc2cc(C(F)(F)F)cc(C(F)(F)F)c2)c2ncc(OCCCC(=O)O)cn2)C[C@H]1CC [amorphous obicetrapib hemicalcium] |  |  |  |  |  |  |  |  |  |  | remained amorphous |  |  |  |  |  |  |  | less than 5% | remained amorphous
